Data taken from US10981891B2, “Antibacterial compounds and uses thereof” (priority 2016, dated 2021).
≈ marks a conversion by molar mass, not a printed value.

Each molecule was assayed on M. tuberculosis H37Rv (ATCC 27294) (assay: Microplate Alamar Blue assay (MABA), MIC against replicating M. tuberculosis H37Rv). Conditions: Mycobacterium tuberculosis, 168 h; H37Rv, MABA, 7H12 media, 7 days at 37° C.; MIC = lowest concentration reducing fluorescence by 90% relative to controls; read-out: M. tuberculosis MIC.
Type: cell-based

How did the MIC turn out when `CCOc1cc(C(c2cc3cc(Br)ccc3nc2OC)C(O)(CCN(C)C)c2cccc3ccoc23)cc(OCC)n1` (stereo not shown) [Example 12, 2-(Benzofuran-7-yl)-1-(6-bromo-2-methoxyquinolin-3-yl)-1-(2,6-diethoxypyridin-4-yl)-4-(dimethylamino)butan-2-ol] was run?
The MIC was less than 0.01 µg/mL.

For `CCOc1cc(C(O)(CCN(C)C)C(c2cc3cc(Br)ccc3nc2OC)c2cccc(OC)c2F)cc(OC)n1` (stereo not shown) [Example 17, 1-(6-Bromo-2-methoxyquinolin-3-yl)-4-(dimethylamino)-2-(2-ethoxy-6-methoxypyridin-4-yl)-1-(2-fluoro-3-methoxyphenyl)butan-2-ol], which MIC is on record?
The MIC was less than 0.01 µg/mL.

For `COc1cc(C(O)(CCN(C)C)C(c2cccc(C)c2)c2cc3cc(Br)ccc3nc2OC)cc(OC)n1` (stereo not shown) [Example 1, 1-(6-Bromo-2-methoxyquinolin-3-yl)-2-(2,6-dimethoxypyridin-4-yl)-4-(dimethylamino)-1-(m-tolyl)butan-2-ol], which MIC is on record?
The MIC was less than 0.02 µg/mL.

`COc1cc(C(O)(CCN(C)C)C(c2cc3cc(Br)ccc3nc2OC)c2ccnc(OC)c2OC)c(OC)c(OC)n1` (stereo not shown) [Example 61, 1-(6-Bromo-2-methoxyquinolin-3-yl)-1-(2,3-dimethoxypyridin-4-yl)-4-(dimethylamino)-2-(2,3,6-trimethoxypyridin-4-yl)butan-2-ol] was tested. Which MIC did it give?
Its MIC is 0.02 µg/mL (≈ 0.0304 µM).

With `COc1cc(C(O)(CCN(C)C)C(c2cc3cc(C#N)ccc3nc2OC)c2ccnc(OC)c2OC)cc(N(C)C)n1` (stereo not shown) [Example 94, 3-(1-(2,3-Dimethoxypyridin-4-yl)-4-(dimethylamino)-2-(2-(dimethylamino)-6-methoxypyridin-4-yl)-2-hydroxybutyl)-2-methoxyquinoline-6-carbonitrile] as the molecule, how does the MIC read?
The MIC was 0.06 µg/mL (≈ 0.102 µM).

With `COc1cc(C(O)(CCN(C)C)C(c2cc3cc(Br)ccc3nc2OC)c2ccnc(OC)c2OC)cc(N(C)C)n1` (stereo not shown) [Example 68, 1-(6-Bromo-2-methoxyquinolin-3-yl)-1-(2,3-dimethoxypyridin-4-yl)-4-(dimethylamino)-2-(2-(dimethylamino)-6-methoxypyridin-4-yl)butan-2-ol] as the molecule, how does the MIC read?
The MIC was 0.01 µg/mL (≈ 0.0156 µM).

With `COc1nc2ccc(Br)cc2cc1C(c1cccc2c1OCCO2)C(O)(CCN(C)C)c1cc(SC)nc(SC)c1` (stereo not shown) [Example 56, 2-(2,6-Bis(methylthio)pyridin-4-yl)-1-(6-bromo-2-methoxyquinolin-3-yl)-1-(2,3-dihydrobenzo[b][1,4]dioxin-5-yl)-4-(dimethylamino)butan-2-ol] as the molecule, how does the MIC read?
The MIC was 0.01 µg/mL (≈ 0.0152 µM).

For `CNCCC(O)(c1cc(OC)nc(OC)c1)C(c1cccc(F)c1)c1cc2cc(C#N)ccc2nc1OC` (stereo not shown) [Example 97, 3-(2-(2,6-Dimethoxypyridin-4-yl)-1-(3-fluorophenyl)-2-hydroxy-4-(methylamino)butyl)-2-methoxyquinoline-6-carbonitrile], which MIC is on record?
Its MIC is 0.01 µg/mL (≈ 0.0194 µM).

For `COc1cccc(C(c2cc3cc(Br)ccc3nc2OC)C(O)(CCN(C)C)c2cc(C)nc(C)c2)c1OC` (stereo not shown) [Example 37, 1-(6-Bromo-2-methoxyquinolin-3-yl)-1-(2,3-dimethoxyphenyl)-4-(dimethylamino)-2-(2,6-dimethylpyridin-4-yl)butan-2-ol], which MIC is on record?
The MIC was 0.08 µg/mL (≈ 0.135 µM).

Which MIC does the source give for `COc1cc(C(O)(CCN(C)C)C(c2cc3cc(Br)ccc3nc2OC)c2sc(OC)nc2Cl)cc(OC)n1` (stereo not shown) [Example 71, 1-(6-Bromo-2-methoxyquinolin-3-yl)-1-(4-chloro-2-methoxythiazol-5-yl)-2-(2,6-dimethoxypyridin-4-yl)-4-(dimethylamino)butan-2-ol] here?
Its MIC is 0.03 µg/mL (≈ 0.047 µM).

How did the MIC turn out when `COc1nc2ccc(Br)cc2cc1C(c1ccccc1)C(O)(CCN(C)C)c1cccc2occc12` (stereo not shown) [Example 14, 2-(Benzofuran-4-yl)-1-(6-bromo-2-methoxyquinolin-3-yl)-4-(dimethylamino)-1-phenylbutan-2-ol] was run?
The MIC was 0.06 µg/mL (≈ 0.11 µM).

Which MIC does the source give for `COc1cc(C(O)(CCN(C)C)C(c2cc3cc(Br)ccc3nc2OC)c2cc(C)sc2C)cc(OC)n1` (stereo not shown) [Example 33, 1-(6-Bromo-2-methoxyquinolin-3-yl)-2-(2,6-dimethoxypyridin-4-yl)-4-(dimethylamino)-1-(2,5-dimethylthiophen-3-yl)butan-2-ol] here?
Its MIC is less than 0.02 µg/mL.

With `COc1cc(C(O)(CCN(C)C)C(c2cc3cc(C#N)ccc3nc2OC)c2ccnc(OC)c2OC)cc(OC(F)F)n1` (stereo not shown) [Example 83, 3-(2-(2-(Difluoromethoxy)-6-methoxypyridin-4-yl)-1-(2,3-dimethoxypyridin-4-yl)-4-(dimethylamino)-2-hydroxybutyl)-2-methoxyquinoline-6-carbonitrile] as the molecule, how does the MIC read?
Its MIC is less than 0.02 µg/mL.

`COc1cc(C(O)(CCN(C)C)C(c2cc3cc(C#N)ccc3nc2OC)c2cccc(C)c2F)cc(OC(F)F)n1` (stereo not shown) [Example 88, 3-(2-(2-(Difluoromethoxy)-6-methoxypyridin-4-yl)-4-(dimethylamino)-1-(2-fluoro-3-methylphenyl)-2-hydroxybutyl)-2-methoxyquinoline-6-carbonitrile] was tested. Which MIC did it give?
The MIC was 0.01 µg/mL (≈ 0.0172 µM).

For `COc1cc(C(O)(CCN(C)C)C(c2cccc(C)c2)c2cc3cc(Br)ccc3nc2OC)cc(OC(C)C)n1` (stereo not shown) [Example 25, 1-(6-Bromo-2-methoxyquinolin-3-yl)-4-(dimethylamino)-2-(2-isopropoxy-6-methoxypyridin-4-yl)-1-(m-tolyl)butan-2-ol], which MIC is on record?
The MIC was 0.01 µg/mL (≈ 0.0164 µM).

How did the MIC turn out when `COc1cc(C(c2cc3cc(Br)ccc3nc2OC)C(O)(CCN(C)C)c2cccc3ccoc23)cc(OC(C)C)n1` (stereo not shown) [Example 21, 2-(Benzofuran-7-yl)-1-(6-bromo-2-methoxyquinolin-3-yl)-4-(dimethylamino)-1-(2-isopropoxy-6-methoxypyridin-4-yl)butan-2-ol] was run?
The MIC was less than 0.02 µg/mL.

For `COc1nc2ccc(Br)cc2cc1C(c1cccc(C)c1F)C(O)(CCN(C)C)c1cc(SC)nc(SC)c1` (stereo not shown) [Example 55, 2-(2,6-Bis(methylthio)pyridin-4-yl)-1-(6-bromo-2-methoxyquinolin-3-yl)-4-(dimethylamino)-1-(2-fluoro-3-methylphenyl)butan-2-ol], which MIC is on record?
The MIC was less than 0.004 µg/mL.

How did the MIC turn out when `COc1nc2ccc(Br)cc2cc1C(c1ccnc(OC)c1OC)C(O)(CCN(C)C)c1cc(SC)nc(SC)c1` (stereo not shown) [Example 46, 2-(2,6-Bis(methylthio)pyridin-4-yl)-1-(6-bromo-2-methoxyquinolin-3-yl)-1-(2,3-dimethoxypyridin-4-yl)-4-(dimethylamino)butan-2-ol] was run?
The MIC was less than 0.02 µg/mL.

`COc1cc(C(O)(CCN(C)C)C(c2cc3cc(Br)ccc3nc2OC)c2cccc(OC)c2F)cc(SC)n1` (stereo not shown) [Example 48, 1-(6-Bromo-2-methoxyquinolin-3-yl)-4-(dimethylamino)-1-(2-fluoro-3-methoxyphenyl)-2-(2-methoxy-6-(methylthio)pyridin-4-yl)butan-2-ol] was tested. Which MIC did it give?
The MIC was less than 0.02 µg/mL.

With `CCCOc1cc(C(O)(CCN(C)C)C(c2cc3cc(Br)ccc3nc2OC)c2ccnc(OC)c2OC)cc(OC)n1` (stereo not shown) [Example 28, 1-(6-Bromo-2-methoxyquinolin-3-yl)-1-(2,3-dimethoxypyridin-4-yl)-4-(dimethylamino)-2-(2-methoxy-6-propoxypyridin-4-yl)butan-2-ol] as the molecule, how does the MIC read?
Its MIC is 0.01 µg/mL (≈ 0.0153 µM).

For `COc1cc(C(O)(CCN(C)C)C(c2cc3cc(Br)ccc3nc2OC)c2cccc3c2OCCO3)cc(OC(F)F)n1` (stereo not shown) [Example 58, 1-(6-Bromo-2-methoxyquinolin-3-yl)-2-(2-(difluoromethoxy)-6-methoxypyridin-4-yl)-1-(2,3-dihydrobenzo[b][1,4]dioxin-5-yl)-4-(dimethylamino)butan-2-ol], which MIC is on record?
Its MIC is less than 0.01 µg/mL.

With `CCOc1cc(C(c2cc3cc(Br)ccc3nc2OC)C(O)(CCN(C)C)c2cccc3ccoc23)cc(OC)n1` (stereo not shown) [Example 22, 2-(Benzofuran-7-yl)-1-(6-bromo-2-methoxyquinolin-3-yl)-4-(dimethylamino)-1-(2-ethoxy-6-methoxypyridin-4-yl)butan-2-ol] as the molecule, how does the MIC read?
The MIC was less than 0.02 µg/mL.
